From US20210038753A1, “BIOLOGICAL STERILIZATION INDICATOR WITH STERILANT RESISTANCE MODULATOR” (3M INNOVATIVE PROPERTIES COMPANY, priority 2014, published 2021)

Columns and labels:
Type in all cases: cell-based
[1] = tested on: Geobacillus stearothermophilus spores; assay: Survival of spores (growth, pH indicator change) in modulator-treated self-contained biological indicators after H2O2 sterilant exposure (Example 1); settings: for percentage of self-contained biological indicators that showed observable growth (pH indicator change): 2 minutes
Experimental: Tub-shaped spore carriers (polypropylene), similar to those described in International Publication No. WO2014/189716 with the exception that they were not coated with colloidal nanoparticles, were used. Liquid-cultured Geobacillus stearothermophilus spores (>10^6), were suspended in sterile water. Approximately 10 μL of the spore suspension was deposited onto the spore carriers and dried at room temperature. Aliquots (0 μL, 5 μL, or 10 μL, respectively) of a 0.5M sterile solution of L-homocysteine were deposited into the dried, spore-coated tub-shaped spore carrier. The homocysteine-coated tubs were dried at room temperature. Thus, the final dried coating on the carriers included at least 10^6 spores with 0, 2.5 or 5 micromoles of L-homocysteine, respectively.
FIG. 1. The outer container 12 was obtained from 3M ATTEST 1292 Rapid Biological Indicators (available from 3M Company; St. Paul, Minn.). The cap was obtained from 3M ATTEST 1261 Biological Indicators (3M Company). The nutrient medium was from 3M ATTEST 1292 ampoules with added methionine (5 g/L). Five individual self-contained biological indicators were exposed to different concentrations (listed in Table 3) of hydrogen peroxide for 2 minutes in a STERRAD NX sterilizer. After exposing them to the sterilization process, all of the self-contained biological indicators were activated by crushing the ampoule inside the outer container.

[2] = tested on: Geobacillus stearothermophilus spores; assay: Resistance of self-contained biological indicators to hydrogen peroxide sterilization, glucosidase enzyme activity fluorescence readout (ENZ+)
Experimental: (§1) PET film (.09 mm thick) was coated with colloidal silica as described in International Publication No. WO2014/189716, which is incorporated herein by reference in its entirety. […] Separate aqueous spore coating solutions were prepared as described in Example 1 with the amino acids shown in table 4 present in the coating solutions. Two microliter aliquots (containing at least 10^6 spores) of the respective spore coating solutions were deposited onto the silica-coated PET film, forming a series of spaced-apart spots on the film. The spore coated films were dried in a 60° C. incubator for 12 minutes. Circular discs (hereinafter, “coated carriers”) of the PET film, each disc including one of the dried spots, were punched out and were used to assemble self-contained biological indicators (BI) similar to that shown in FIG. 1 of International Publication No. WO2014/189716. The coated carriers described above were placed into the “spore carrier 135” shown in FIG. 1 of International Publication No. WO2014/189716. Each self-contained BI comprised a polycarbonate outer container, a breaker, a cap, and a cap filter. Disposed inside the outer container were a coated carrier along with an ampoule media containing the nutrient medium from 3M ATTEST 1292 Rapid Readout Biological Indicators plus 5g/L methionine (as described in Example 1).
(§2) The self-contained biological indicators with different concentrations of additives (Table 4) were exposed to hydrogen peroxide sterilization in STERRAD NX sterilizer. The sterilization processes were run by manually injecting 1.0 ml of 59% hydrogen peroxide per load, unless specified otherwise. The exposure time was varied to determine the resistance profile of self-contained BIs with different additive formulations. The BIs were activated by pressing down the cap to break the media ampoule. The activated BIs were placed in a bench-top fluorimeter (3M Company, St. Paul, Minn.) to detect fluorescence.
(§3) A self-contained BI that is not completely inactivated (i.e., not all of the spores are killed by the sterilization process) will resume cellular functions upon activation of the BI. The production of glucosidase enzyme by surviving spores is an indication that at least one of the spores have not been inactivated (killed) by the sterilization process. The glucosidase enzyme cleaves the 4-methylumbelliferyl-glucoside (MUG) releasing the fluorescent methyl umbelliferone, which is detected using a bench-top fluorimeter. Growth and proliferation of spores in the self-contained biological indicator can also be detected by a pH change, which may be detected by a color change of the pH indicator in the growth medium.
(§4) Self-contained biological indicators were prepared (with various additives listed in table 4) as described above in this Example. For each additive tested, a lower range and a higher range was used as a preliminary screen to identify additives modulated the resistance of the spores to the sterilant. Five self-contained BIs representing each condition were exposed to hydrogen peroxide sterilization in STERRAD NX sterilizer. The sterilization processes used a constant injection volume (1.0 ml of 59% hydrogen peroxide) and various times (e.g., 20 seconds to 7 minutes) of exposure to the hydrogen peroxide. The self-contained BIs were activated after exposure to the sterilization process and were monitored for fluorescence using a bench-top fluorimeter) and pH based color change (visually). […]
(§5) Self-contained biological indicators (with various additives listed in table 5) were prepared as described in Example 2. The self-contained biological indicators were exposed to hydrogen peroxide in a STERRAD NX sterilizer as described in Example 2. The self-contained BIs were activated after exposure to the sterilization process and were monitored for fluorescence using a bench-top fluorimeter and pH based color change (visually).

[3] = tested on: Geobacillus stearothermophilus spores; assay: Resistance of self-contained biological indicators to hydrogen peroxide sterilization, growth readout by pH colour change (GRO+)
Experimental: as §1, §2, §3, §4, §5

[4] = Table 4, modulator 0.01 weight percent in spore coating solution, H2O2 exposure 30 sec.
[5] = Table 4, modulator 0.01 weight percent in spore coating solution, H2O2 exposure 60 sec.
[6] = Table 4, modulator 0.01 weight percent in spore coating solution, H2O2 exposure 90 sec.
[7] = Table 4, modulator 0.01 weight percent in spore coating solution, H2O2 exposure 3 min.
[8] = Table 4, modulator 0.01 weight percent in spore coating solution, H2O2 exposure 7 min.
[9] = Table 4, modulator 0.1 weight percent in spore coating solution, H2O2 exposure 30 sec.
[10] = Table 4, modulator 0.1 weight percent in spore coating solution, H2O2 exposure 60 sec.
[11] = Table 4, modulator 0.1 weight percent in spore coating solution, H2O2 exposure 90 sec.
[12] = Table 4, modulator 0.1 weight percent in spore coating solution, H2O2 exposure 3 min.
[13] = Table 4, modulator 0.1 weight percent in spore coating solution, H2O2 exposure 7 min.

N[C@@H](CCS)C(=O)O [L-homocysteine]
resistance of spores to H2O2 compared to 0 micromoles of L-homocysteine ([1]; 2.5 micromoles of L-homocysteine, seen with 0.6 ml and 0.8 ml of 59% H2O2): decrease in resistance of spores | percentage of self-contained biological indicators that showed observable growth (pH indicator change) ([1]; 2.5 micromoles of homocysteine, 0.1 ml of 59% H2O2 (94 mg × Sec/L)): 100% | percentage of self-contained biological indicators that showed observable growth (pH indicator change) ([1]; 2.5 micromoles of homocysteine, 0.2 ml of 59% H2O2 (222 mg × Sec/L)): 80% | percentage of self-contained biological indicators that showed observable growth (pH indicator change) ([1]; 2.5 micromoles of homocysteine, 0.4 ml of 59% H2O2 (458 mg × Sec/L)): 60% | percentage of self-contained biological indicators that showed observable growth (pH indicator change) ([1]; 2.5 micromoles of homocysteine, 0.6 ml of 59% H2O2 (689 mg × Sec/L)): 60% | percentage of self-contained biological indicators that showed observable growth (pH indicator change) ([1]; 2.5 micromoles of homocysteine, 0.8 ml of 59% H2O2 (842 mg × Sec/L)): 20% | resistance of spores to H2O2 ([1]; 5.0 micromoles of L-homocysteine, all kill with 0.4 ml of 59% H2O2): reduced the resistance of spores significantly | percentage of self-contained biological indicators that showed observable growth (pH indicator change) ([1]; 5.0 micromoles of homocysteine, 0.1 ml of 59% H2O2 (94 mg × Sec/L)): 100% | percentage of self-contained biological indicators that showed observable growth (pH indicator change) ([1]; 5.0 micromoles of homocysteine, 0.2 ml of 59% H2O2 (222 mg × Sec/L)): 40% | percentage of self-contained biological indicators that showed observable growth (pH indicator change) ([1]; 5.0 micromoles of homocysteine, 0.4 ml of 59% H2O2 (458 mg × Sec/L)): 0% | percentage of self-contained biological indicators that showed observable growth (pH indicator change) ([1]; 5.0 micromoles of homocysteine, 0.6 ml of 59% H2O2 (689 mg × Sec/L)): 0% | percentage of self-contained biological indicators that showed observable growth (pH indicator change) ([1]; 5.0 micromoles of homocysteine, 0.8 ml of 59% H2O2 (842 mg × Sec/L)): 0%

O=C(O)[C@@H]1CCCN1 [L-proline, reference compound]
percentage of self-contained biological indicators positive for glucosidase enzyme activity (ENZ+) [2, 4]: 100% | percentage of self-contained biological indicators positive for glucosidase enzyme activity (ENZ+) [2, 5]: 100% | percentage of self-contained biological indicators positive for glucosidase enzyme activity (ENZ+) [2, 6]: 100% | percentage of self-contained biological indicators positive for glucosidase enzyme activity (ENZ+) [2, 7]: 0% | percentage of self-contained biological indicators positive for glucosidase enzyme activity (ENZ+) [2, 8]: 0% | percentage of self-contained biological indicators positive for glucosidase enzyme activity (ENZ+) [2, 9]: 100% | percentage of self-contained biological indicators positive for glucosidase enzyme activity (ENZ+) [2, 10]: 100% | percentage of self-contained biological indicators positive for glucosidase enzyme activity (ENZ+) [2, 11]: 100% | percentage of self-contained biological indicators positive for glucosidase enzyme activity (ENZ+) [2, 12]: 0% | percentage of self-contained biological indicators positive for glucosidase enzyme activity (ENZ+) [2, 13]: 0% | sensitivity of the biological indicator to the sterilization process relative to the control with no additives ([3]; Example 2 / Comparative Example 1 (Table 4), fluorescence and growth readouts): did not result in an increased sensitivity | percentage of self-contained biological indicators positive for growth (GRO+) [3, 4]: 100% | percentage of self-contained biological indicators positive for growth (GRO+) [3, 5]: 100% | percentage of self-contained biological indicators positive for growth (GRO+) [3, 6]: 100% | percentage of self-contained biological indicators positive for growth (GRO+) [3, 7]: 0% | percentage of self-contained biological indicators positive for growth (GRO+) [3, 8]: 0% | percentage of self-contained biological indicators positive for growth (GRO+) [3, 9]: 100% | percentage of self-contained biological indicators positive for growth (GRO+) [3, 10]: 100% | percentage of self-contained biological indicators positive for growth (GRO+) [3, 11]: 100% | percentage of self-contained biological indicators positive for growth (GRO+) [3, 12]: 0% | percentage of self-contained biological indicators positive for growth (GRO+) [3, 13]: 0%
